Here are results for two molecules from US20250382631A1, “PROTAC-CID SYSTEMS FOR USE IN MULTIPLEX GENE REGULATION” (William Marsh Rice University, priority 2022, published 2025).

Like-named read-outs stand apart in the source and are kept apart here.

In test [1] the test system is pUAS-1-driven EYFP expression in HEK293T cells transfected with GAL4- and VPR-fused PROTAC target protein / E3 ubiquitin ligase. Put plainly: PROTAC-CID inducible EYFP gene activation, flow cytometry. The following applies: for Bottom (best-fit value) / Span (best-fit value) / Top (best-fit value): Table 4 nonlinear regression of EYFP activation; for Bottom (best-fit value) / Span (best-fit value) / Top (best-fit value) / Hillslope (best-fit value) / logEC50 (best-fit value) / EC50: FIG. 13A. In kind it is cell-based, human. In short, it runs like this: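 HEK293T cells PEI-transfected with plasmids (60 ng each unless noted), medium changed at 12 h, then inducer small molecules in DMSO added. Viable single cells analysed by flow cytometry; EYFP mean intensity normalised to BFP, and fold change taken versus control group.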
(A flow cytometer gives signals particle by particle.)

Test [2] has as its system endogenous BRD4 (BRD4S, BRD4L). The experiment in a line: Immunoblot of endogenous BRD4 in HEK293T cells. The format is cell-based, human. The following applies: MZ1 20 nM and 100 nM, 48 h, HEK293T with MZ1 PROTAC-CID, FIG. 22. An excerpt:
Immunoblots and RT-qPCR. Mice liver tissues or culture cells were lysed in RIPA buffer (Abcam no. ab156034) supplemented with phosphatase inhibitor (Thermo Fisher Scientific no. PIA32957) and protease inhibitors (Fishers cientific no. A32965). Lysates were resolved by 10% Tris-glycine SDS-PAGE, transferred to PVDF membrane (Bio-Rad no. 1620177), and blotted with antibodies BRD4 (Abcam, ab128874), GAPDH (Cell Signaling Technology, 2118L), luciferase (ABclonal, requested), Ran (ABclonal, A0976), Hsp90 (Cell Signaling Technology, 4874). Images were acquired using LumiQuant AC600 (Acuronbio Technology Inc), quantification analysis was processed by ImageJ software. Trizol reagent (Sigma no. T9424) was used to extract total RNA from liver. RNAs were purified using RNeasy Mini kit (QIAGEN no. 4106). The quality and concentration of total RNA were checked on NanoDrop™ 2000/2000c Spectrophotometers (Thermo Fisher Scientific no. ND2000LAPTOP). Reverse transcription of total RNA was performed using a Applied Biosystems™ High-Capacity cDNA Reverse Transcription Kit (Thermo Fisher Scientific no. 4368813) and qPCR was conducted with SYBR Green Master Mix (Abclonal no. RK21203) on QuantStudio 6 Real-time PCR system (Thermo Fisher Scientific).

[3] abbreviates: Table 4 nonlinear regression, Prism 9 [Agonist] vs. response variable slope (four parameters), no unit in table (the source gives nM), read-out: EC50 (best-fit value).
[4] abbreviates: dose-response, read-out: EC50 for gene activation.

For orientation: EC50 means the concentration that produces a half-maximal response. On to `CC[C@H](C(=O)N1CCCC[C@H]1C(=O)O[C@H](CCc1ccc(OC)c(OC)c1)c1ccccc1OCC(=O)NCCCCCCOc1cccc2c1C(=O)N(C1CCC(=O)NC1=O)C2=O)c1cc(OC)c(OC)c(OC)c1` (stereo partly shown) [dTAG-13], for which, in test [1], the “Bottom (best-fit value)” value worked out at 2.581, the “Span (best-fit value)” value was 135.7 and the “Top (best-fit value)” value amounted to 138.3. Also, in test [1] (Table 4 nonlinear regression), the “Hillslope (best-fit value)” value is listed as 3.384 and the “logEC50 (best-fit value)” value was 1.724. For the same molecule, the half-maximal effective concentration (EC50) in test [1] (setting [3]) is 53 nM. In addition, in test [1] (setting [4]), the EC50 is 53 nM.

As to `Cc1ncsc1-c1ccc(CNC(=O)[C@@H]2C[C@@H](O)CN2C(=O)[C@@H](NC(=O)COCCOCCOCCNC(=O)C[C@@H]2N=C(c3ccc(Cl)cc3)c3c(sc(C)c3C)-n3c(C)nnc32)C(C)(C)C)cc1` [MZ1], the “grades of EYFP intensity” value in test [1] (HEK293T transfected with GAL4-VHL, TRIM24^BD-VPR, BRD4^BD2-VPR and reporter plasmid, FIG. 2E: dTRIM24, MZ1 100 nM) came out at 13 fold. Moreover, in test [1], the “Bottom (best-fit value)” value is on record as 1.416, the “Span (best-fit value)” value is 319.6 and the “Top (best-fit value)” value is 321. For the same molecule, in test [1] (Table 4 nonlinear regression), the “Hillslope (best-fit value)” value amounted to 1.728 and the “logEC50 (best-fit value)” value is reported as 1.51. In addition, in test [1] (setting [3]), the EC50 was 32.4 nM. In test [1] (setting [4]), the EC50 stood at 32 nM. In test [2], the “degradation of endogenous BRD4 isoforms” value is reported as “only observed the degradation of the short isoform of BRD4 (BRD4S), not the conventional long isoform BRD4 (BRD4L)”.
